Experimental data published in patent US12331106B2, “Anti-angiopoietin-2 antibodies that induce Tie2 activation” (Institute for Basic Science, priority 2018, dated 2025).
Substitutions are numbered along the chain they refer to. One block for each molecule: values may come before it.

Key:
[1] = test system: choroidal neovascularization (CNV); experiment: Laser-induced CNV model, intravitreal injection: CNV regression and vascular leakage; assay type: in vivo, mice; details: 5 μg intravitreal at 7 days
Method: 2C8H11 antibody was tested for its ability to inhibit choroidal neovascularization (CNV), the hallmark of wet age-related macular degeneration (AMD) using laser-induced CNV model. After dilation of pupils with 5 mg/ml phenylephrine and 5 mg/ml tropicamide eye drops (Santen Pharmaceutical) and instillation of 0.5% proparacaine hydrochloride eye drops (Alcon) for topical anesthesia, laser photocoagulator (Lumenis Inc.) with a slit lamp delivery system was used with a glass coverslip as a contact lens to visualize the retina. Sufficient laser energy (532 nm wavelength, 250 mW power, 100 ms duration, 50 μm spot size) was delivered in 4 locations for each eye (the 3, 6, 9 and 12 o'clock positions of the posterior pole). Only burns that produced a bubble at the time of laser photocoagulation, indicating the rupture of the Bruch's membrane, were included in this study. Spots containing hemorrhage at the laser site were excluded from the analysis. To recapitulate a clinical situation, 2C8H11 (5 μg) was administered intravitreally to the mice at 7 days after laser photocoagulation (FIG. 13A). As a control or as for comparison, Fc or VEGF-Trap (5 μg each) was administered in the same manner to the mice. To intravitreally administer indicated reagents, ˜1 μl (5 mg/ml) containing 5 μg of each reagent was injected into the vitreal cavity using the Nanoliter 2000 micro-injector (World Precision Instruments) fitted with a glass capillary pipette. CD31+CNV volumes of the retinal pigment epithelium (RPE)-choroid-sclera flat mounts were calculated using the MATLAB® Image Processing Toolbox™ (Math Works, a comprehensive set of reference-standard algorithms and workflow apps for image processing, analysis, visualization, and algorithm development) at 14 days after laser photocoagulation. Anti-CD31 antibody (1:200, Millipore®) was used for the detection of endothelial cells of CNV. […] Combined fluorescein angiography (FA) and indocyanine green angiography (ICGA) enabled us to measure vascular leakage at the neovessels around the laser injury site. Continuous-wave laser modules at 488 nm and 785 nm were used as excitation sources for fluorescein and ICG, respectively. A raster scanning pattern of excitation lasers was achieved by a scanner system consisting of a rotating polygonal mirror (MC-5; Lincoln Laser) and a galvanometer-based scanning mirror (6230H; Cambridge technology), and delivered to the back aperture of an imaging lens. A high numerical aperture (NA) objective lens (PlanApo λ, NA 0.75; Nikon) was used as the imaging lens to provide wide-field fundus fluorescence images. Fluorescence signals detected by photomultiplier tubes (R9110; Hamamatsu Photonics) were digitized by frame grabber and reconstructed to images with size of 512×512 pixels per frame in real time. To visualize late-phase (6 min) FA and ICGA images utilizing the angiography system, 10 mg of fluorescein sodium (Alcon) and 0.15 mg of ICG (Daiichi Pharmaceutical) were administered intraperitoneally and intravenously, respectively. The imaging procedure was performed under systemic anesthesia and pupil dilation to improve the quality of images. Leaky areas from CNV were calculated as the total measured hyperfluorescent areas in FA images divided by the total measured CNV areas in ICGA images using a Java-based imaging software (ImajeJ; National Institutes of Health). […] Thus, the magnitude of the suppression of CNV and vascular leakage was quantitatively indistinguishable between VEGF-Trap and 2C8H11 in the mouse model of laser-induced CNV.

[2] = test system: choroidal neovascularization (CNV) / choriocapillaris; experiment: Laser-induced CNV model, OCTA: CNV volume and choriocapillary regeneration (avascular space); assay type: in vivo, mice; details: for increased avascular space: 5 μg intravitreal at 7 days
Method: To determine the effect of 2C8H11 in CNV regression and choriocapillary regeneration after establishment of CNV, Fc, VEGF-Trap, control antibody or 2C8H11 (5 μg each) was given intravitreally to the mice by the Nanoliter 2000 micro-injector (World Precision Instruments) at 7 days after laser photocoagulation. Intra-vital optical coherence tomography angiography (OCTA) was performed at 6, 14, 21, and 35 days after laser photocoagulation (FIG. 14A). The retinochoroidal layers were imaged using a prototype high-speed swept-source optical coherence tomography (OCT) system, utilizing a custom ring cavity wavelength-swept laser centered at 1048 nm with an A-scan rate of 230 kHz. OCT images were collected in a 1.7 mm×1.7 mm field of view within the retino-choroidal layer to monitor regeneration of choroidal vasculatures at the site of laser photocoagulation after intravitreal injection of reagents. […] Then, by using automatic layer flattening and segmentation algorithms, cross-sectional OCT angiograms were flattened to RPE, and en face OCT angiograms were generated by separate projection of each flattened cross-sectional OCT angiogram in three depth ranges: inner retinal, outer retinal and choroidal layers. The outer plexiform layer and Bruch's membrane were defined as the boundaries separating inner retinal, outer retinal, and choroidal layers. The density of retina and choroid vessel was automatically calculated as the proportion of measured area occupied by flowing blood vessels defined as pixels having decorrelation values above the threshold level. Avascular pixels were detected from the en face OCT angiogram representing choroidal layer by means of the image processing toolbox of MATLAB® (Math Works). Then the total volume of the avascular space surrounding the laser injury site was calculated by summing the number of avascular pixels multiplied by the volume of one pixel. In order to analyze the changing complexion of avascular space volume, serially measured values in each eye were transformed into percentage change from baseline value. […] Overall, these findings indicate that both 2C8H11 and […] promotes regeneration of the choriocapillaris, while VEGF-Trap leads to choriocapillary regression in the laser-induced CNV model.

[3] = test system: Tie2 receptor clustering / FOXO1 translocation in HUVECs; experiment: Tie2 clustering and FOXO1 translocation in HUVECs (immunofluorescence); assay type: cell-based, human; details: HUVECs; 30 min; compared to serum-starved control
Method: Tie2 clustering at cell-cell junction area and FOXO1 translocation from nucleus to cytosol by anti-Ang2 antibodies were examined in HUVECs by immunofluorescence. Specifically, HUVECs were seeded on 8 well slide chamber (Lab-Tek™ II) and maintained in EGM-2 medium for 2-3 days. At 100% confluence, the cells were serum starved with EBM-2 medium for 4 hrs and then treated with 1 μg/ml anti-Ang2 antibodies together with 1 μg/ml of hAng2 for 30 min. Thereafter, the cells were fixed with 4% formaldehyde in PBS at room temperature (RT) for 10 min, permeabilized with 0.1% TRITON™ X-100 (non-ionic polyoxyethylene surfactant) in PBS, blocked with 1% BSA in PBS at RT for 60 min, and incubated with primary antibodies at RT for 1 hr. The primary antibodies for hTie2, FOXO1, and Human Fc were used. The cells were then incubated with secondary antibodies (Invitrogen) in the dark at RT for 1 hr and mounted with VECTASHIELD® mounting medium with DAPI (Vector Labs, antifade mounting media optimized for immunofluorescence applications). Images were taken with a laser scanning confocal microscope (LSM880, Carl Zeiss).
2C8H11-induced Tie2 clustering and FOXO1 translocation was examined in a time-course study (from 10 min to 240 min). […] 6-4: Inhibition of Vascular Permeability by Humanized Anti-Ang2 Antibodies

hAng2 = target: T1, hAng2 (Homo sapiens, UniProt O15123); experiment: OCTET affinity of humanized anti-Ang2 antibodies against hAng2; assay type: binding; details: humanized 4B9 antibodies (IgG1) fixed on AR2G biosensor; hAng2 50-0 nM
T1 sequence (O15123 19-496): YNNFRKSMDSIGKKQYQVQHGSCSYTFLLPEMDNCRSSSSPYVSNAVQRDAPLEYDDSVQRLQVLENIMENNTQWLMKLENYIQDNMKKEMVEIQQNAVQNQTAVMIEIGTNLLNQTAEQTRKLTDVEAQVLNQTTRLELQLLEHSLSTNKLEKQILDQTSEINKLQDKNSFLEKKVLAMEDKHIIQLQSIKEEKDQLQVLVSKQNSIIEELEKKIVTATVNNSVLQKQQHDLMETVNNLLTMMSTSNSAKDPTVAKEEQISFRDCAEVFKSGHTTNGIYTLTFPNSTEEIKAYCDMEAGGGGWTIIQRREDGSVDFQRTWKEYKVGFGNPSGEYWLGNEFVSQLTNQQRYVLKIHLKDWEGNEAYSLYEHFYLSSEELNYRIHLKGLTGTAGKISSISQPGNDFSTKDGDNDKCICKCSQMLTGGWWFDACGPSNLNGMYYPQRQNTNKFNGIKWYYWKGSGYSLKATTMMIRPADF

Molecule: VEGF-Trap: VEGF-Trap, comparison agent given intravitreally, 5 μg [reference compound]
vascular leakage suppression compared with Fc ([1]; FA/ICGA, 14 days after laser photocoagulation): 37.0%
CNV regression compared with Fc (CD31+ CNV volume) ([1]; measured 14 days after laser photocoagulation): 64.4%
vascular leakage reduction between 6 and 14 days after laser photocoagulation ([1]; within-group): 45.6%
CNV volume in outer retinas (OCTA) ([2]; 5 μg intravitreal at 7 days after laser photocoagulation): markedly reduced CNV volume
increased avascular space ([2]; D14): 11.4%
increased avascular space ([2]; D21): 16.0%
increased avascular space ([2]; D35): 18.1%

B2: 4B9H21: humanized anti-Ang2 human IgG1 antibody from mouse 4B9; VH SEQ ID NO: 47, VL SEQ ID NO: 48 (antibody, V domains shown)
VH: QVQLVESGGGLVKPGGSLRLSCAASGFTFSDYYMYWVRQAPGKGLEWVSTISVGGSFTYYPDSVKGRFTISRDNAKNSLYLQMNSLRAEDTAVYYCARDWGLRPWFVYWGQGTLVTVSS
VL: DIQMTQSPSSLSASVGDRVTITCKASQDVSTAVAWYQQKPGKAPKLLIYWASTRHTGVPSRFSGSGSGTDFTLTISSLQPEDFATYYCQQHYSTPPTFGQGTKVEIK
modifications: human IgG1 constant regions; VH; VL
Kdis (hAng2): 8.94e-06 s⁻¹
Kon (hAng2): 73700 M⁻¹ s⁻¹

Further lines, results first:

FOXO1 translocation from nucleus to cytosol [3]: negligibly induced
B1: Ang2: full-length human angiopoietin-2 protein (R&D Systems), Tie2 ligand, SEQ ID NO: 1 (protein)
chain: MWQIVFFTLSCDLVLAAAYNNFRKSMDSIGKKQYQVQHGSCSYTFLLPEMDNCRSSSSPYVSNAVQRDAPLEYDDSVQRLQVLENIMENNTQWLMKLENYIQDNMKKEMVEIQQNAVQNQTAVMIEIGTNLLNQTAEQTRKLTDVEAQVLNQTTRLELQLLEHSLSTNKLEKQILDQTSEINKLQDKNSFLEKKVLAMEDKHIIQLQSIKEEKDQLQVLVSKQNSIIEELEKKIVTATVNNSVLQKQQHDLMETVNNLLTMMSTSNSAKDPTVAKEEQISFRDCAEVFKSGHTTNGIYTLTFPNSTEEIKAYCDMEAGGGGWTIIQRREDGSVDFQRTWKEYKVGFGNPSGEYWLGNEFVSQLTNQQRYVLKIHLKDWEGNEAYSLYEHFYLSSEELNYRIHLKGLTGTAGKISSISQPGNDFSTKDGDNDKCICKCSQMLTGGWWFDACGPSNLNGMYYPQRQNTNKFNGIKWYYWKGSGYSLKATTMMIRPADF
modifications: Human Angiopoietin-2 full-length

Kdis (hAng2): 1.56e-05 s⁻¹
Kon (hAng2): 93900 M⁻¹ s⁻¹
B3: 4B9H31: humanized anti-Ang2 human IgG1 antibody from mouse 4B9; VH SEQ ID NO: 51, VL SEQ ID NO: 52 (antibody, V domains shown)
VH: B2 VH with S49A
VL: B2 VL
modifications: human IgG1 constant regions; VH; VL
